Where a name gives a salt, the structure may show the parent alone. Read-outs that look alike come from different tables or passages of the source.
How the values were obtained:
Type in all cases: cell-based
[1] = tested on: Enterobacter cloacae BAA-2341 (KPC); test: In vitro antibacterial activity, agar dilution MIC; conditions: BAA2341; Table 2; BAA-2341 Enterobacter cloacae, KPC; read-out: MIC
Text: (§1) Experimental strains: all experimental standard bacterial strains for enzyme production were purchased from ATCC, and the clinically separated CRE strain was purchased from Southwest Hospital of the Third Military Medical University.
(§2) Experimental Method: Agar dilution method, referring to M100-S23: Performance Standards for Antimicrobial Susceptibility Testing: Twenty-Third Informational Supplement (Clinical And Laboratory Standards Institute, 2013). Minimal inhibitory concentration (MIC, μg/mL) was calculated.

[2] = tested on: Enterobacter hormaechei BAA-2082 (KPC); test: In vitro antibacterial activity, agar dilution MIC; conditions: BAA2082; Table 2; BAA-2082 Enterobacter hormaechei, KPC; read-out: MIC
Text: as §1, §2

[3] = tested on: Escherichia coli BAA-196 (TEM-10); test: In vitro antibacterial activity, agar dilution MIC; conditions: TEM-10, read-out: MIC
Text: as §1, §2

[4] = tested on: Escherichia coli BAA-2340 (KPC); test: In vitro antibacterial activity, agar dilution MIC; conditions: BAA2340, Table 2, BAA-2340 Escherichia coli
Text: as §1, §2

[5] = tested on: Escherichia coli BAA-2452 (NDM-1); test: In vitro antibacterial activity, agar dilution MIC; conditions: NDM-1, read-out: MIC
Text: as §1, §2

[6] = tested on: Escherichia coli BAA-2523 (OXA-48); test: In vitro antibacterial activity, agar dilution MIC; conditions: OXA-48, read-out: MIC
Text: as §1, §2

[7] = tested on: Klebsiella oxytoca ATCC-51983 (SHV-5); test: In vitro antibacterial activity, agar dilution MIC; conditions: ATCC51983; Table 2; ATCC-51983 Klebsiella oxytoca, SHV-5; read-out: MIC
Text: as §1, §2

[8] = tested on: Klebsiella pneumoniae BAA-1900 (KPC); test: In vitro antibacterial activity, agar dilution MIC; conditions: KPC, read-out: MIC
Text: as §1, §2

[9] = tested on: Klebsiella pneumoniae BAA-2146 (NDM-1); test: In vitro antibacterial activity, agar dilution MIC; conditions: NDM-1, read-out: MIC
Text: as §1, §2

[10] = tested on: Klebsiella pneumoniae BAA-2524 (OXA-48); test: In vitro antibacterial activity, agar dilution MIC; conditions: BAA2524; Table 2; BAA-2524 Klebsiella pneumoniae, OXA-48; read-out: MIC
Text: as §1, §2

[11] = tested on: Citrobacter freundii 7520cfr-167 (NDM, OXA-10, ESBLs); test: In vitro antibacterial activity on clinically separated CRE strain, agar dilution MIC; conditions: Table 3, 7520cfr-167 Citrobacter freundii
Text: as §1, §2

[12] = tested on: Citrobacter freundii 7521cfr-169 (NDM, ESBLs, AmpC); test: as above; conditions: Table 3, 7521cfr-169 Citrobacter freundii
Text: as §1, §2

[13] = tested on: Enterobacter cloacae 7494ecl-295 (NDM, ESBLs, AmpC); test: as above; conditions: Table 3, 7494ecl-295 Enterobacter cloacae
Text: as §1, §2

[14] = tested on: Enterobacter cloacae 7495ecl-296 (IMP, ESBLs, AmpC); test: as above; conditions: Table 3, 7495ecl-296 Enterobacter cloacae
Text: as §1, §2

[15] = tested on: Enterobacter cloacae 7498ecl-299 (ESBLs, AmpC); test: as above; conditions: Table 3, 7498ecl-299 Enterobacter cloacae
Text: as §1, §2

[16] = tested on: Enterobacter cloacae 7511ecl-312 (NDM, ESBLs, AmpC); test: as above; conditions: Table 3, 7511ecl-312 Enterobacter cloacae
Text: as §1, §2

[17] = tested on: Enterobacter cloacae 7513ecl-314 (AmpC); test: as above
Text: as §1, §2

[18] = tested on: Escherichia coil 7440eco-641 (ESBLs); test: as above; conditions: Table 3, 7440eco-641 Escherichia coil
Text: as §1, §2

[19] = tested on: Escherichia coli 7438eco-639 (NDM, ESBLs); test: as above; conditions: Table 3, 7438eco-639 Escherichia coli
Text: as §1, §2

[20] = tested on: Klebsiella pneumoniae 7450kpn-597 (KPC, ESBLs); test: as above; conditions: Table 3, 7450kpn-597 Klebsiella pneumoniae
Text: as §1, §2

[21] = tested on: Klebsiella pneumoniae 7460kpn-607 (NDM, ESBLs); test: as above; conditions: Table 3, 7460kpn-607 Klebsiella pneumoniae
Text: as §1, §2

[22] = tested on: Klebsiella pneumoniae 7463kpn-610 (ESBLs); test: as above
Text: as §1, §2

[23] = tested on: Klebsiella pneumoniae 7477kpn-624 (NDM, ESBLs); test: as above; conditions: Table 3, 7477kpn-624 Klebsiella pneumoniae
Text: as §1, §2

[24] = tested on: Klebsiella pneumoniae 7484kpn-631 (IMP, ESBLs); test: as above
Text: as §1, §2

[25] = tested on: Klebsiella pneumoniae 7526kpn-640 (KPC, ESBLs); test: as above; conditions: Table 3, 7526kpn-640 Klebsiella pneumoniae
Text: as §1, §2

[26] = BAA196, Table 2, BAA-196 Escherichia coli
[27] = BAA2452, Table 2, BAA-2452 Escherichia coli
[28] = BAA2523, Table 2, BAA-2523 Escherichia coli
[29] = BAA1900, Table 2, BAA-1900 Klebsiella pneumoniae
[30] = BAA2146, Table 2, BAA-2146 Klebsiella pneumoniae
[31] = Table 3, 7513ecl-314 Enterobacter cloacae
[32] = Table 3, 7463kpn-610 Klebsiella pneumoniae
[33] = Table 3, 7484kpn-631 Klebsiella pneumoniae

Compound | MIC [1] | MIC [2] | MIC [3, 26] | MIC [4] | MIC [5, 27] | MIC [6, 28] | MIC [7] | MIC [8, 29] | MIC [9, 30] | MIC [10] | MIC [11] | MIC [12] | MIC [13] | MIC [14] | MIC [15] | MIC [16] | MIC [17, 31] | MIC [18] | MIC [19] | MIC [20] | further results
NC(=O)[C@@H]1CC[C@@H]2CN1C(=O)N2OS(=O)(=O)O [AVI sodium salt, Avibactam, reference compound] | > 8 µg/mL | > 8 µg/mL | > 8 µg/mL | 8 µg/mL | > 8 µg/mL | 8 µg/mL | > 8 µg/mL | > 8 µg/mL | > 8 µg/mL | > 8 µg/mL | > 8 µg/mL | 8 µg/mL | > 8 µg/mL | > 8 µg/mL | > 8 µg/mL | > 8 µg/mL | > 8 µg/mL | 8 µg/mL | 8 µg/mL | > 8 µg/mL | MIC ([3]; BAA196, first Table 4, BAA-196 Escherichia coli): 16 µg/mL; MIC ([5]; BAA2452, first Table 4, BAA-2452 Escherichia coli): 16 µg/mL; MIC ([6]; BAA2523, first Table 4, BAA-2523 Escherichia coli): 16 µg/mL; MIC ([8]; BAA1900, first Table 4, BAA-1900 Klebsiella pneumoniae): 16 µg/mL; MIC ([9]; BAA2146, first Table 4, BAA-2146 Klebsiella pneumoniae): 8 µg/mL; MIC ([17]; first Table 4, 7513ecl-314 Enterobacter cloacae): 32 µg/mL; MIC [21]: > 8 µg/mL; MIC [22, 32]: 8 µg/mL; MIC ([22]; first Table 4, 7463kpn-610 Klebsiella pneumoniae): 32 µg/mL; MIC [23]: > 8 µg/mL; MIC [24, 33]: > 8 µg/mL; MIC ([24]; first Table 4, 7484kpn-631 Klebsiella pneumoniae): 16 µg/mL; MIC [25]: > 8 µg/mL
O=C(NC1CC2(CNC2)C1)[C@@H]1CC[C@@H]2CN1C(=O)N2OS(=O)(=O)O [Compound 2, (2S,5R)-2-((2-azaspiro[3.3]heptan-6-yl)carbamoyl)-7-oxo-1,6-diazabicyclo[3.2.1]octan-6-yl hydrogen sulfate] | 2 µg/mL | 2 µg/mL | 1 µg/mL | 0.5 µg/mL | 1 µg/mL | 1 µg/mL | 2 µg/mL | 1 µg/mL | 2 µg/mL | 2 µg/mL | 2 µg/mL | 2 µg/mL | 2 µg/mL | 2 µg/mL | 2 µg/mL | 2 µg/mL | 2 µg/mL | 2 µg/mL | 2 µg/mL | 2 µg/mL | MIC [21]: 2 µg/mL; MIC [22, 32]: 2 µg/mL; MIC [23]: 2 µg/mL; MIC [24, 33]: 2 µg/mL; MIC [25]: 4 µg/mL
O=C(NC1CCNCC1)[C@@H]1CC[C@@H]2CN1C(=O)N2OS(=O)(=O)O [MK-7655, reference compound] | > 16 µg/mL | > 16 µg/mL | > 16 µg/mL | > 16 µg/mL | > 16 µg/mL | > 16 µg/mL | > 16 µg/mL | > 16 µg/mL | > 16 µg/mL | > 16 µg/mL | > 8 µg/mL | > 8 µg/mL | > 8 µg/mL | > 8 µg/mL | > 8 µg/mL | > 8 µg/mL | > 8 µg/mL | > 8 µg/mL | > 8 µg/mL | > 8 µg/mL | MIC [21]: > 8 µg/mL; MIC [22, 32]: > 8 µg/mL; MIC [23]: > 8 µg/mL; MIC [24, 33]: > 8 µg/mL; MIC [25]: > 8 µg/mL

Source: US10167283B2, “β-lactamase inhibitors and uses thereof” (priority 2015, dated 2019)
